Activity calls are given as the source filed them. How the calls were made is not given here.
Tested on: rodent carcinogenicity bioassays, tumor incidence
Test: CCRIS carcinogenicity studies
Method in brief: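 Archive of carcinogenicity, mutagenicity, tumor promotion and tumor inhibition results drawn from journals, NCI reports and other sources, expert-reviewed; covers 1985-2011 and is no longer updated.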

For `CCCCN(CCCCO)N=O`, the carcinogen call (Species: MOUSE, Strain/Sex: B6C3F1/MALE, Route: ORAL, Dose: 0, 0.05% IN DRINKING WATER FOR 12 WK (STUDY DURATION: 20 WK), Tumor Site: Type of Lesion: BLADDER: SQUAMOUS CELL CARCINOMA) was “active; positive”, the carcinogen call (Species: MOUSE, Strain/Sex: B6D2F1/FEMALE, Route: ORAL, Dose: 0, 523 MG/L IN DRINKING WATER FOR 13 WK (STUDY DURATION: 28 WK), Tumor Site: Type of Lesion: URINARY BLADDER: TUMOR) was “active; positive” and the carcinogen call (Species: MOUSE, Strain/Sex: B6D2F1/MALE, Route: ORAL, Dose: 0, 0.05% IN DRINKING WATER FOR 26 WK (STUDY DURATION: 26 WK), Tumor Site: Type of Lesion: URINARY BLADDER: TRANSITIONAL CELL CARCINOMA) was “active; positive”. For the same molecule, the carcinogen call (Species: MOUSE, Strain/Sex: B6D2F1/MALE, Route: ORAL, Dose: 0, 5 MG TWICE/WK BY GAVAGE FOR 10 WK (STUDY DURATION: 30 WK), Tumor Site: Type of Lesion: URINARY BLADDER: TRANSITIONAL CELL CARCINOMA) was “active; positive”, the carcinogen call (Species: MOUSE, Strain/Sex: B6D2F1/MALE, Route: ORAL, Dose: 0, 523 MG/L IN DRINKING WATER FOR 13 WK (STUDY DURATION: 28 WK), Tumor Site: Type of Lesion: URINARY BLADDER: TUMOR) was “active; positive” and the carcinogen call (Species: MOUSE, Strain/Sex: DS/SHI/MALE, Route: ORAL, Dose: 0, 0.05% IN DRINKING WATER FOR 12 WK (STUDY DURATION: 20 WK), Tumor Site: Type of Lesion: BLADDER: TRANSITIONAL CELL CARCINOMA) was “active; positive”. For the same molecule, the carcinogen call (Species: MOUSE, Strain/Sex: NON/SHI/MALE, Route: ORAL, Dose: 0, 0.05% IN DRINKING WATER FOR 4 WK (STUDY DURATION: 36 WK), Tumor Site: Type of Lesion: KIDNEY: TRANSITIONAL CELL CARCINOMA PAPILLOMA, BLADDER: TRANSITIONAL CELL CARCINOMA) was “active; positive”, the carcinogen call (Species: MOUSE, Strain/Sex: NON/SHI/MALE, Route: ORAL, Dose: 0, 0.05% IN DRINKING WATER FOR 12 WK (STUDY DURATION: 20 WK), Tumor Site: Type of Lesion: KIDNEY: TRANSITIONAL CELL CARCINOMA, SQUAMOUS CELL CARCINOMA, BLADDER: TRANSITIONAL CELL CARCINOMA) was “active; positive” and the carcinogen call (Species: Mouse, Strain/Sex: Nrf2-/-, p53+/-, Nrf2-/-::p53+/-, and wild type, Route: Oral, Dose: 0.05% in drinking water for 8 wk, study duration 8 wk) was “urinary bladder: carcinoma, 63.0% in nrf2-/- mice, 75.8% in p53+/- mice, 89.6% i”. The carcinogen call (Species: RAT, Strain/Sex: ACI/MALE, Route: ORAL, Dose: 0, 0.05% IN DRINKING WATER FOR 4-24 WK, Tumor Site: Type of Lesion: URINARY BLADDER: PAPILLOMA, TRANSITIONAL CELL CARCINOMA, SQUAMOUS CELL CARCINOMA) was “active; positive”, the carcinogen call (Species: RAT, Strain/Sex: F344/MALE, Route: ORAL, Dose: 0, 0.05% IN DRINKING WATER FOR 10 WK (STUDY DURATION: 20 WK), Tumor Site: Type of Lesion: URINARY BLADDER: TRANSITIONAL CELL CARCINOMA) was “active; positive” and the carcinogen call (Species: RAT, Strain/Sex: F344/MALE, Route: ORAL, Dose: 0, 1, 5, 10, 50 PPM IN DRINKING WATER FOR 112 WK (STUDY DURATION: 112 WK), Dose: 0, 1, 5, 10, 50 PPM IN DRINKING WATER FOR 112 WK (STUDY DURATION: 112 WK), Tumor Site: Type of Lesion: BLADDER: CARCINOMA, PAPILLOMA) was “active; positive”.

`O=NN1CCCCC1` was tested, and the carcinogen call (Species: HAMSTER, Route: SUBCUTANEOUS, Tumor Site: Type of Lesion: TRACHEA, NASAL CAVITY, ESOPHAGUS, FORESTOMACH, LUNG, LIVER, Tumor Site: Type of Lesion: TRACHEA, NASAL CAVITY, ESOPHAGUS, FORESTOMACH, LUNG, LIVER) was “active; positive”, the carcinogen call (Species: HAMSTER, Strain/Sex: SYRIAN/MALE,FEMALE, Route: ORAL, Dose: 0.006, 0.025, 0.05% IN DRINKING WATER FOR LIFE, Dose: 0.006, 0.025, 0.05% IN DRINKING WATER FOR LIFE, Tumor Site: Type of Lesion: RESPIRATORY TRACT (LARYNX, PHARYNX, TRACHEA): PAPILLOMA, EPIDERMOID CARCINOMA, PAPILLARY POLYP, FORESTOMACH: PAPILLOMA) was “active; positive” and the carcinogen call (Species: MONKEY, Route: ORAL, Tumor Site: Type of Lesion: LIVER) was “active; positive”. The carcinogen call (Species: MOUSE, Route: INTRAPERITONEAL, Tumor Site: Type of Lesion: LUNG) was “active; positive”, the carcinogen call (Species: MOUSE, Route: ORAL, Tumor Site: Type of Lesion: FORESTOMACH, LIVER, LUNG, Tumor Site: Type of Lesion: FORESTOMACH, LIVER, LUNG) was “active; positive” and the carcinogen call (Species: RAT, Route: INTRAVENOUS, Tumor Site: Type of Lesion: ESOPHAGUS, PHARYNX) was “active; positive”. The carcinogen call (Species: RAT, Route: ORAL, Tumor Site: Type of Lesion: ESOPHAGUS, LIVER) was “active; positive”, the carcinogen call (Species: RAT, Route: SUBCUTANEOUS, Tumor Site: Type of Lesion: ESOPHAGUS, NASAL CAVITY) was “active; positive” and the carcinogen call (Species: RAT, Strain/Sex: F344/FEMALE, Route: ORAL, Dose: 0.9 MILLIMOLAR SOLUTION (100 MG/L) IN DRINKING WATER 5/WK FOR 28 WK, Tumor Site: Type of Lesion: ESOPHAGUS: PAPILLOMA, CARCINOMA) was “active; positive”.

`CN(N=O)C(=O)Oc1cccc2ccccc12` was tested, and the carcinogen call (Species: MOUSE, Strain/Sex: CFLP/FEMALE, Route: DERMAL, Dose: 0, 12.5, 50, 200 UG IN ACETONE 2 D/WK FOR 104 WK (STUDY DURATION: 24 MO), Dose: 0, 12.5, 50, 200 UG IN ACETONE 2 D/WK FOR 104 WK (STUDY DURATION: 24 MO), Tumor Site: Type of Lesion: SKIN: CARCINOMA) was “active; positive”.

For `CCCCCN(CCCCC)N=O`, the carcinogen call (Species: RAT, Strain/Sex: WISTAR/FEMALE, Route: SUBCUTANEOUS, Dose: 0, 62.5, 125, 250 MG/KG BW 1/WK FOR 25 WK (STUDY DURATION: 1 YR), Dose: 0, 62.5, 125, 250 MG/KG BW 1/WK FOR 25 WK (STUDY DURATION: 1 YR), Tumor Site: Type of Lesion: NASAL CAVITY: POLYPOID ADENOMA, LUNG: BRONCHIOALVEOLAR ADENOMA) was “active; positive” and the carcinogen call (Species: RAT, Strain/Sex: WISTAR/MALE, Route: SUBCUTANEOUS, Dose: 0, 62.5, 125, 250 MG/KG BW 1/WK FOR 25 WK (STUDY DURATION: 1 YR), Dose: 0, 62.5, 125, 250 MG/KG BW 1/WK FOR 25 WK (STUDY DURATION: 1 YR), Tumor Site: Type of Lesion: NASAL CAVITY: POLYPOID ADENOMA, LUNG: BRONCHIOALVEOLAR ADENOCARCINOMA, BRONCHIOALVEOLAR ADENOMA) was “active; positive”.

`CCCc1cc2ccccc2c2ccc3c(c12)C1OC1C(O)C3O` (stereo unspecified) was tested, and the carcinogen call (Species: MOUSE, Strain/Sex: ICR/FEMALE, Route: INTRAPERITONEAL, Dose: 0, 8 NMOL IN 5 µL DMSO ON D 1, 16 NMOL IN 10 µL ON D 8 AND 32 NMOL IN 20 µL ON D 15 OF LIFE (STUDY DURATION: 35 WK)) was “inactive; negative” and the carcinogen call (Species: MOUSE, Strain/Sex: ICR/MALE, Route: INTRAPERITONEAL, Dose: 0, 8 NMOL IN 5 µL DMSO ON D 1, 16 NMOL IN 10 µL ON D 8 AND 32 NMOL IN 20 µL ON D 15 OF LIFE (STUDY DURATION: 35 WK)) was “inactive; negative”.

For `CNC(=O)Oc1cccc2ccccc12`, the carcinogen call (Species: MOUSE, Strain/Sex: SWISS/FEMALE, Route: DERMAL, Dose: 0, 100 MG/KG IN 100 µL ACETONE 3/WK FOR 52 WK (STUDY DURATION: 52 WK)) was “inactive; negative”, the carcinogen call (Species: Mouse, Strain/Sex: CD-1/Female (70/group), Route: Oral, Dose: 0, 100, 1,000, 8,000 ppm in feed for 104 wk, Dose: 0, 100, 1,000, 8,000 ppm in feed for 104 wk, Tumor Site: Type of Lesion: BLOOD VESSELS: Hemangiosarcoma and hemangioma (high dose only). LIVER: Hepatocellular adenoma and carcinoma (high dose o) was “active; positive (purity 99.3%; study details not given in source; mtd may have been exc” and the carcinogen call (Species: Mouse, Strain/Sex: CD-1/Male (70/group), Route: Oral, Dose: 0, 100, 1,000, 8,000 ppm in feed for 104 wk, Dose: 0, 100, 1,000, 8,000 ppm in feed for 104 wk, Tumor Site: Type of Lesion: BLOOD VESSELS: Hemangiosarcoma and hemangioma (all doses). KIDNEY: Renal tubular cell adenoma and carcinoma (high dose o) was “active; positive (purity 99.3%; study details not given in source; neoplastic lesions co”. The carcinogen call (Species: RAT, Strain/Sex: SWISS, Route: GAVAGE, Dose: 0, 30 MG/KG BW, 1/D FOR UP TO 22 MO, Tumor Site: Type of Lesion: INTESTINES: FIBROSARCOMA, BONE: OSTEOSARCOMA) was “active; positive” and the carcinogen call (Species: Rat, Strain/Sex: Sprague-Dawley/Male (50/control and high-dose group and 40 per low-and mid-dose group), Route: Oral, Dose: 0, 250, 1,500, 7,500 ppm in feed for 104 wk, Dose: 0, 250, 1,500, 7,500 ppm in feed for 104 wk, Tumor Site: Type of Lesion: URINARY BLADDER: papilloma and carcinoma at highest dose. KIDNEY: one transitional cell carcinoma. LIVER: adenoma. THYRO) was “active; positive at the high dose level (purity 99%; study details not given in source)”.

Source: PubChem BioAssay AID1259411 (Chemical Carcinogenesis Research Information System (CCRIS), 2018)
